These results are taken from ChEMBL document CHEMBL1201862, “PubChem BioAssay data set” (2004).

One test deals with T1, Aminopeptidase N (Plasmodium falciparum FcB1/Columbia, UniProt O96935).
T1 sequence (O96935 whole entry): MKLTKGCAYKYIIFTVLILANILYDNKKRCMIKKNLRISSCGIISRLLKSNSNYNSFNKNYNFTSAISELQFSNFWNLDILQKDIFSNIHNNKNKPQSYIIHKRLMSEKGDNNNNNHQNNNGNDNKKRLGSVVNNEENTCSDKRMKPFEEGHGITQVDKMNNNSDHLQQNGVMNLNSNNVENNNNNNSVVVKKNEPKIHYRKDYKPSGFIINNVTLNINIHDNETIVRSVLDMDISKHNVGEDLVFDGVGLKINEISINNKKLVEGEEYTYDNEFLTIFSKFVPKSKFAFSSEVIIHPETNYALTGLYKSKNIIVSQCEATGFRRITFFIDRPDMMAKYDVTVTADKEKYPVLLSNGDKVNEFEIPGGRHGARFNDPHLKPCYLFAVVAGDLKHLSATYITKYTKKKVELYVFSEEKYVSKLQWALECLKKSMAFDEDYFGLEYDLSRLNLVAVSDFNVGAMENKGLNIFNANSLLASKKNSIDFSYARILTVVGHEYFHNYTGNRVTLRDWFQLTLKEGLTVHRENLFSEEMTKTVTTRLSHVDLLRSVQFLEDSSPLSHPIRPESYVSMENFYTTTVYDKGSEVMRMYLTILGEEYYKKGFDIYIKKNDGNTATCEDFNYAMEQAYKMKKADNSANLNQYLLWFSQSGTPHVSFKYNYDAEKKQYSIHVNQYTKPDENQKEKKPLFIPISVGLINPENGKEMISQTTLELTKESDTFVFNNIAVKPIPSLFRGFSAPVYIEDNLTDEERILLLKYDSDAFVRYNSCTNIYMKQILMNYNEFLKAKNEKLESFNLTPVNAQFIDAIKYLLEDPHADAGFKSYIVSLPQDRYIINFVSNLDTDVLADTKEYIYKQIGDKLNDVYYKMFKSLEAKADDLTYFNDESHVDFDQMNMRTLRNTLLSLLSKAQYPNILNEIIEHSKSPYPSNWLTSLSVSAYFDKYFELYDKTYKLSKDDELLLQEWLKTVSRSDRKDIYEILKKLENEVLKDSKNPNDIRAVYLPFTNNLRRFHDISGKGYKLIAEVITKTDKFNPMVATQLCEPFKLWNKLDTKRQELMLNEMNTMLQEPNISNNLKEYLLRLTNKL
The test is described as follows: P. falciparum M1AAP inhibitors, biochemical, fluorogenic H-Leu-NHMec substrate, 1536-well (AID 1445). Also noted: species or system Plasmodium falciparum 3D7, 3D7.

The target of test [1] is T2, RNA-binding protein pos-1 (Caenorhabditis elegans, UniProt G5EF15).
T2 sequence (G5EF15 whole entry): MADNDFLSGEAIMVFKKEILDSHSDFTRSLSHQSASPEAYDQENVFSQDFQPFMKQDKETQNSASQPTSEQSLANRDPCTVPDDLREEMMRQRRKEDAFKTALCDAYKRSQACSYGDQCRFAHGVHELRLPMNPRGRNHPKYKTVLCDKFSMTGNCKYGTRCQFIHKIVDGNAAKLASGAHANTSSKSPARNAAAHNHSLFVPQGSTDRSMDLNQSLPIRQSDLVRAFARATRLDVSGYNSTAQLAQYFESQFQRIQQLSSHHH
Briefly: inhibitors of POS-1/mex-3 RNA binding, dose response, biochemical, fluorescence polarization (AID 1964).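 Also: purified POS-1 fused to maltose binding protein made in E. coli; potency of compounds blocking POS-1 binding to fluorescent RNA.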

Test [2] deals with T3, SUMO-activating enzyme (Homo sapiens, UniProt Q9UBT2). The test is described as follows: SUMOylation inhibitor hit validation, confirmation, SUMOylation inhibitor project, biochemical, AlphaScreen (AID 2018). The class given is functional.
The target in test [3] is T4, Zinc finger protein mex-5 (Caenorhabditis elegans, UniProt Q9XUB2).
T4 sequence (Q9XUB2 whole entry): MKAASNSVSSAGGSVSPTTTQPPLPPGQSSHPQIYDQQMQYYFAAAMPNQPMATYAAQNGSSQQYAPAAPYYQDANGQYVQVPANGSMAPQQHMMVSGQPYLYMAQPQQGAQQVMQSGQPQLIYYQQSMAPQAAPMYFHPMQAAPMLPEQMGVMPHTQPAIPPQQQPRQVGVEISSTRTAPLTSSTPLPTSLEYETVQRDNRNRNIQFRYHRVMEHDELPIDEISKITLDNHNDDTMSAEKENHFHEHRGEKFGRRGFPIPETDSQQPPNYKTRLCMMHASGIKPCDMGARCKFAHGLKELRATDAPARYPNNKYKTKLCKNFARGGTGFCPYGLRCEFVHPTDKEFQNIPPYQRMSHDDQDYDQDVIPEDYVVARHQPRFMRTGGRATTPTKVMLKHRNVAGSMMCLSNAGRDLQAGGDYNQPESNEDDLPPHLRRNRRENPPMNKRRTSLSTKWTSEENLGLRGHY
The test is described as follows: MEX-5/TCR-2 RNA interaction inhibitors, dose response, biochemical, C. elegans, fluorescence polarization (AID 1960).

The target of test [4] is T5, Heat shock factor protein 1 (Mus musculus, UniProt P38532).
T5 sequence (P38532 whole entry): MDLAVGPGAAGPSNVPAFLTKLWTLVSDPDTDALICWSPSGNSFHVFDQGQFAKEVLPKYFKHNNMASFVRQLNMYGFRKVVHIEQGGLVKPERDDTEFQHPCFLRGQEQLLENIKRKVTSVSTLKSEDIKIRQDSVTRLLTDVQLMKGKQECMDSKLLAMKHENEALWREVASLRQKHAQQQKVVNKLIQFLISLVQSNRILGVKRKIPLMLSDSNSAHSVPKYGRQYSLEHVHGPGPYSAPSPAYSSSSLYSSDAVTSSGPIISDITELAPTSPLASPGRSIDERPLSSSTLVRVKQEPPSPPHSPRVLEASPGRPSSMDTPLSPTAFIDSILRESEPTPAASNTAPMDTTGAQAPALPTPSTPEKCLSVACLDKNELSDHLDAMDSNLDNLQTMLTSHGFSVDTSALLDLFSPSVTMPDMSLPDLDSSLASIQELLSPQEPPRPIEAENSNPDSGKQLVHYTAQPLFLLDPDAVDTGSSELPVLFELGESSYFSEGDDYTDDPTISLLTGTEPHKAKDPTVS
The test is described as follows: inhibition of MG132-induced HSE-luciferase signal, confirmation, cell-based, NIH3T3, luminescence, dose retest (AID 2382).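 Also: NIH3T3 fibroblasts with HSF1-driven luciferase reporter stressed by proteasome inhibitor MG132; luminescence from HSF1-driven luciferase expression after 8 hours of MG132 stress.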 The class given is functional.

Test [5] has as its target T3, SUMO-activating enzyme. The test is described as follows: inhibitors of in vitro SUMOylation cascade, primary screen, biochemical, HTRF, uHTS (AID 2006). The test is classed as protein-complex assay.
The target in a further test is Nonstructural protein 1 (Influenza A virus, UniProt Q194T2). The test is classed as functional, Influenza A virus (A/California/07/2009(H1N1)).
Test [6] concerns Streptococcus sp. 'group A'. The test is described as follows: growth inhibition of control SK(-) GAS strain, dose response, counter-screen for streptokinase expression inhibitor project, luminescence, kanamycin, BacTiterGlo, confirmation (AID 1900). The class given is functional, organism-based.
The nature of test [7]: inhibitors of intracellular T. cruzi replication, confirmation, NIH3T3 host cells, beta-gal luminescence (AID 2044).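 Also: intracellular parasites grown in NIH/3T3 mouse fibroblasts as host cells; luminescent beta-galactosidase reporter signal from transgenic T. cruzi replicating inside host cells; inhibitors lower the luminescence signal.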 The class given is functional, cell-based.
For another test, the system named is Streptococcus. Briefly: Group A Streptococcus viability loss, dose response, counter-screen for streptokinase expression inhibitor project, luminescence, BacTiterGlo (AID 1915).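 Also: potency for reduction of bacterial viability or growth.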 The test is classed as functional, organism-based.
Test [8] deals with C-C chemokine receptor type 6 (Homo sapiens, UniProt P51684). The test is described as follows: CCR6 receptor antagonists, dose response, cell-based, luminescent beta-arrestin readout (AID 504728). The test is classed as functional.
The target in another test is Beta-galactosidase (Escherichia coli, UniProt Q8VNN2). Briefly: beta-galactosidase enzyme inhibitors and activators, dose response, artefact control for CCR6 antagonist project, biochemical, E. coli enzyme, set 3 (AID 504712). The class given is functional.
In another test the test system is Vero. Briefly: cells. The class given is functional. Particulars: Chlorocebus sabaeus.
A short description of test [9]: inhibitors of firefly luciferase expression or activity, dose response, H4 neuroglioma cells, luminescence (AID 1990). The test is classed as functional, cell-based.
A short description of test [10]: cells. The test is classed as functional, cell-based.
Test [11] can be described thus: Luminescence Cell-Based Dose Response HTS to Identify Inhibitors of 5'UTR Stem-Loop Driven Prion Protein mRNA Translation in H4 Neuroglioblastoma Cells. [Related pubchem assays: 1827 (Project Summary), 1813 (Primary HTS)]. The class given is functional.
Test [12] in a line: inhibitors of SNCA 5'UTR-driven reporter translation, confirmation, H4 neuroglioma cells, luminescence (AID 1988). The test is classed as functional, cell-based.
Test [13] is described as follows: cells. The class given is functional, cell-based. The source holds these as a separate data set.
A short description of test [14]: cytotoxicity toward NIH3T3 fibroblasts, dose response, counter-screen, cell-based, ATP luminescence, mouse fibroblasts (AID 2010).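 Also: cells exposed to compound for about 90 hours before reading.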 The test is classed as functional.
A short description of test [15]: THP-1 cell cytotoxicity, dose response, cytotoxicity control for non-replicating M. tuberculosis project (AID 489025). The class given is functional.
Test [16] can be described thus: HepG2 cell cytotoxicity, dose response, cytotoxicity control for non-replicating M. tuberculosis project (AID 489018). The test is classed as functional. The conditions noted are these: Mycobacterium tuberculosis.
Test [17] can be described thus: Vero E6 cell cytotoxicity, dose response, cytotoxicity control for non-replicating M. tuberculosis project, secondary assay (AID 492998). The test is classed as functional, VeroE6. The conditions noted are these: Vero C1008.
Test [18] can be described thus: cells. The test is classed as functional.
A further test has as its system H9c2. The test is described as follows: cells. The class given is functional, cell-based. Particulars: Rattus norvegicus, H9c2, Myocardium.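 Also: confirmatory concentration-response retest of ultra-high-throughput screening hits for modulation of myocardial damage; cell death induced by hydrogen peroxide oxidative stress; compound pretreatment for 60 min then peroxide exposure for 2 h; potency is for protecting the cells against peroxide damage rather than for killing them.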
Test [19] is described as follows: Shn3 3'UTR reporter inhibitors, dose response, cell-based, Clone20 osteoblasts, firefly luciferase, cherry-picked (AID 624132).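 Also: firefly luciferase luminescence from reporter carrying the Shn3 3'UTR in osteoblasts.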 The test is classed as functional.
A short description of test [20]: HepG2 cell cytotoxicity, dose response, cytotoxicity control for Shn3 inhibitor project, CellTiter-Glo, cherry-picked (AID 624134). The class given is functional, cell-based.
Test [21] in a line: control 3'UTR Renilla luciferase suppression, dose response, counter-screen for Shn3 inhibitor project, cell-based, Clone20-Shn3RL, cherry-picked (AID 624133). The test is classed as functional.
Test [22] has as its target Voltage-dependent T-type calcium channel subunit alpha-1H (Homo sapiens, UniProt O95180). Briefly: Cav3.2 T-type channel inhibitors, cell-based, synthetic library set 1, calcium flux (AID 493022). The test is classed as functional.
A short description of test [23]: inhibition of K1F phage lysis, E. coli UTI89, bacterial capsule biogenesis inhibitors, alamar blue (AID 488966). The test is classed as functional.

The source made the active and inactive calls.

T3 sequence (Q9UBE0 whole entry): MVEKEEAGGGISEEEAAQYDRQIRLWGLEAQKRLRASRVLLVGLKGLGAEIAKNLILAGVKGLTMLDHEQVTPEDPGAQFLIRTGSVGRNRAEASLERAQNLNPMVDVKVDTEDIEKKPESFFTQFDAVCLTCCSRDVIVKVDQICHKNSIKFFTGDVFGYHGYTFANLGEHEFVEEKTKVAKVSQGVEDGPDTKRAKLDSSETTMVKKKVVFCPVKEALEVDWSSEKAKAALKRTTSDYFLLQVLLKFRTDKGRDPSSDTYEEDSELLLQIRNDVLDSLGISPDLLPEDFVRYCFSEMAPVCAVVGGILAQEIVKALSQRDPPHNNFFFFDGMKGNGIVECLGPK
T3 sequence (Q9UBT2 whole entry): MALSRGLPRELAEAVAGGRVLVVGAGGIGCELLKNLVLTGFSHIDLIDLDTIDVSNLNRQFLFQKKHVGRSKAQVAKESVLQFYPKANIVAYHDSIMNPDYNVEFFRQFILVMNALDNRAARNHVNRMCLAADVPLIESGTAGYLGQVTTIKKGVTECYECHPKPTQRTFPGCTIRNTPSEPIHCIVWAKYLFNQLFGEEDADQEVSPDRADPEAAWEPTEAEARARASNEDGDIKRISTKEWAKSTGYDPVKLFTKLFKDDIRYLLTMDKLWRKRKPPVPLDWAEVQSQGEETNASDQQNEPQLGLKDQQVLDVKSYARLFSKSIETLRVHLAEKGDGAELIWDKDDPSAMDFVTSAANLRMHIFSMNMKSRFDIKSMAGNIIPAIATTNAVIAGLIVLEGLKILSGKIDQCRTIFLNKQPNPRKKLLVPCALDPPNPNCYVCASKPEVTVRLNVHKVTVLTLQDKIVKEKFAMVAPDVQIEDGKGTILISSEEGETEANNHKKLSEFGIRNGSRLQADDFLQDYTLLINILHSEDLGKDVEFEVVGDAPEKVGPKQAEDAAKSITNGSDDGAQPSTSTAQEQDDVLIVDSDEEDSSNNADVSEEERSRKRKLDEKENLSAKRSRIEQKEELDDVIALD
Chain of Beta-galactosidase (Q8VNN2 whole entry): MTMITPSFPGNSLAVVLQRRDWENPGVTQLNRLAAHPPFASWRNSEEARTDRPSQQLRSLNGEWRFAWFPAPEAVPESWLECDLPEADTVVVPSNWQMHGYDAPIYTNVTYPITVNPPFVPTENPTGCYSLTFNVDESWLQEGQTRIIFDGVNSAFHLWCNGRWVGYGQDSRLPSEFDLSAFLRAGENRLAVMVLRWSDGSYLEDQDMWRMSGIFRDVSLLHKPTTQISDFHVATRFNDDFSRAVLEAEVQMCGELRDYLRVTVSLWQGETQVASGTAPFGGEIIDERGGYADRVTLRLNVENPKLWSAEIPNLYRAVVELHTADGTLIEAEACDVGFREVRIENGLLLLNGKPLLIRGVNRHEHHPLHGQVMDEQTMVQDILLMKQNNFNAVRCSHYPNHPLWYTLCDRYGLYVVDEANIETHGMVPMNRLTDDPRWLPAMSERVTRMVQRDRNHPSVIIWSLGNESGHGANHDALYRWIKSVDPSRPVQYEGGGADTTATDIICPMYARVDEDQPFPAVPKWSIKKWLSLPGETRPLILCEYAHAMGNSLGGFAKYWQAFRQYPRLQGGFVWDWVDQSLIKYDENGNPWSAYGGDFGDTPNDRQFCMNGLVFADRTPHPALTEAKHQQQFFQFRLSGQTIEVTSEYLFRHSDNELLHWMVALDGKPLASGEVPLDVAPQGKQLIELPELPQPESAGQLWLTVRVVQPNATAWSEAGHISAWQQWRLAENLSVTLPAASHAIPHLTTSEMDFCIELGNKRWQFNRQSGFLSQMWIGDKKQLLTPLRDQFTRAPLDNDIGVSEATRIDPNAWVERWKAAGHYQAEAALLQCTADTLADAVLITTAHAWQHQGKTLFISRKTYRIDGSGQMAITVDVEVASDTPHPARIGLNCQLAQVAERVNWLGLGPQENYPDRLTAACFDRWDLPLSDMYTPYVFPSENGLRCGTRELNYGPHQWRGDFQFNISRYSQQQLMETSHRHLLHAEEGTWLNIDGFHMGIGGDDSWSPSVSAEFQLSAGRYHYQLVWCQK
Chain of Nonstructural protein 1 (Q194T2 whole entry): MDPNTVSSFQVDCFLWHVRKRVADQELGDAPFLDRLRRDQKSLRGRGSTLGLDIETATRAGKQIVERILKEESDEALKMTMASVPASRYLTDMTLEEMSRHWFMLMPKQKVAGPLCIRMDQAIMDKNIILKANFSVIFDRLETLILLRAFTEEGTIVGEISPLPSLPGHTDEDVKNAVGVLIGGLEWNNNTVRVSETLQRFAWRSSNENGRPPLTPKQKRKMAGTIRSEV
Chain of Voltage-dependent T-type calcium channel subunit alpha-1H (O95180 whole entry): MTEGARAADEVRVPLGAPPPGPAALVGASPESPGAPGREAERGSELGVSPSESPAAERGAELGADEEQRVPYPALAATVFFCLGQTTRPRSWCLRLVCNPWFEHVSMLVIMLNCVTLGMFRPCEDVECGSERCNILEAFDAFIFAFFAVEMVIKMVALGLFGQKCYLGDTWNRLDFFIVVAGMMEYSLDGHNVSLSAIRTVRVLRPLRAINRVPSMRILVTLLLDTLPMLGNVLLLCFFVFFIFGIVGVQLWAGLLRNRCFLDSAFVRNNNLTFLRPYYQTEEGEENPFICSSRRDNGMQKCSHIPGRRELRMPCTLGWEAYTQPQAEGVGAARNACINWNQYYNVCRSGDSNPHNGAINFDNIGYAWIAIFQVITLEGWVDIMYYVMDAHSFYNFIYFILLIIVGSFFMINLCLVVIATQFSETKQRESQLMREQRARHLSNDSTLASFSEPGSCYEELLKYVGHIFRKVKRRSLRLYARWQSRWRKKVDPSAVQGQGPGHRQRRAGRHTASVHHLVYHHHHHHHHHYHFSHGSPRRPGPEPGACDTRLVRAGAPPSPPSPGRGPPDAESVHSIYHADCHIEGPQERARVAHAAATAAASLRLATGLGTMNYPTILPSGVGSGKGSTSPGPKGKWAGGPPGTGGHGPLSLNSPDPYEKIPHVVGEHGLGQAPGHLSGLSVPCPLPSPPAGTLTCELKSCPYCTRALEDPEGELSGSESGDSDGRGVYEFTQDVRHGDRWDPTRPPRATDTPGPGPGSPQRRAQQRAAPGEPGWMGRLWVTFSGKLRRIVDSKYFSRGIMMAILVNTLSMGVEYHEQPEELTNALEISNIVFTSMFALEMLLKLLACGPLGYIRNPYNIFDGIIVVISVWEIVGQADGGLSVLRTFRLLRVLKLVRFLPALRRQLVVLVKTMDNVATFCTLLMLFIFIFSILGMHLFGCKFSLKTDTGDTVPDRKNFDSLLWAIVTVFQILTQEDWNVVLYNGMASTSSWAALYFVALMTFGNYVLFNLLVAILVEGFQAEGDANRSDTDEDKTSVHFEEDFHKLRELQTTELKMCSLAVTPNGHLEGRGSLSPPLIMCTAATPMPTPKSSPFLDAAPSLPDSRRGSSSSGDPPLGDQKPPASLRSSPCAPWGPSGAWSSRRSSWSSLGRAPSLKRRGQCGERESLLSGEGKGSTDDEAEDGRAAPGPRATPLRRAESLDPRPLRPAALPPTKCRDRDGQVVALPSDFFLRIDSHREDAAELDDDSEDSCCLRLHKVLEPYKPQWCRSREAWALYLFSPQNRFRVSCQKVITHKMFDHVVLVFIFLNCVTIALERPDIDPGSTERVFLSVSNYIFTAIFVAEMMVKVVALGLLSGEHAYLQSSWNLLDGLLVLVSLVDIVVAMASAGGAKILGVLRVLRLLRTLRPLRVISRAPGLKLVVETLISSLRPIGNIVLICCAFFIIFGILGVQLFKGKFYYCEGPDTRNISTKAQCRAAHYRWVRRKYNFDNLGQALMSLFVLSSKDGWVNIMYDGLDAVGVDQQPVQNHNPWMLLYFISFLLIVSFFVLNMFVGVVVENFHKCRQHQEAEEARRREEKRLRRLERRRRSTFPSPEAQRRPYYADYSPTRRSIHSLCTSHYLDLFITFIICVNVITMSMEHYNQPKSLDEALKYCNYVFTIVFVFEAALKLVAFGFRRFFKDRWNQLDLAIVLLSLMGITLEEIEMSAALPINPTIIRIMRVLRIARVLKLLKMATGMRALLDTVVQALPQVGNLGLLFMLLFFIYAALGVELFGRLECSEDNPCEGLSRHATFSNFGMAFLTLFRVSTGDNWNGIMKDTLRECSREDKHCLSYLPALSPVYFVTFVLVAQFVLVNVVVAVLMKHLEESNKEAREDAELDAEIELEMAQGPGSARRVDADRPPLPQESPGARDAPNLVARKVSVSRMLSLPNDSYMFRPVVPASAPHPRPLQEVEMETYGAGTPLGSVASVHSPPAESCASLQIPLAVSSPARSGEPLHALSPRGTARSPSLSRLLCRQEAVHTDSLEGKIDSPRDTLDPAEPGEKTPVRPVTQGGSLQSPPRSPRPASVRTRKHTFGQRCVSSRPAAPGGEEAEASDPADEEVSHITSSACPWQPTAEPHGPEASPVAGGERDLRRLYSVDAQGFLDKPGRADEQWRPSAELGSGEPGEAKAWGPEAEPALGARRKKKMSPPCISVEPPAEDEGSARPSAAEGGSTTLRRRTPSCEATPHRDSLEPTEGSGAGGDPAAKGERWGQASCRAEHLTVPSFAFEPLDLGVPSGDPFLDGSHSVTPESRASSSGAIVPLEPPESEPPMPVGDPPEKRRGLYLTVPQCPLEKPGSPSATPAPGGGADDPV
Chain of C-C chemokine receptor type 6 (P51684 whole entry): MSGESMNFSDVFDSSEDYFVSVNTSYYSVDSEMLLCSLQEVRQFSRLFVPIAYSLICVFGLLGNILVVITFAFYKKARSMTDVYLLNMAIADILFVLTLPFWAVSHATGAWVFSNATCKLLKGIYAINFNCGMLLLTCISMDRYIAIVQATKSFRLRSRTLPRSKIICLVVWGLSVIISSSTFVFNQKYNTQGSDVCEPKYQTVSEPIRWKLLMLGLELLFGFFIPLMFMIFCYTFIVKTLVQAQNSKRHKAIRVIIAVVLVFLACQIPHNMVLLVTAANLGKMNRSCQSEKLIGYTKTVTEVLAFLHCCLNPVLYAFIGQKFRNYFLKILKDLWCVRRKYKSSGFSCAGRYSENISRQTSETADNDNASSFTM

Turning to `Cc1ccccc1N1C(=O)/C(=C/NNC(=O)c2ccccc2O)C(=O)NC1=S`, the IC50 at Aminopeptidase N was 11.5 µM (active); at SUMO-activating enzyme [2], 25.7 µM (active); on SUMO-activating enzyme [5], 42.4 µM (active); on Nonstructural protein 1 it was 13.4 µM (active). In addition, the EC50 in test [1] was 21.2 µM (active); in [3], 23.5 µM (active); in [4], 30.8 µM (active).
With `CCc1ccccc1OCC(=O)Nc1nc(-c2cccnc2)cs1`, the EC50 is 0.428 µM (active) in test [6], 1.14 µM (active) in test [7] and 3.28 µM (active) in the test with Streptococcus. Besides, the IC50 (in test [8]; on Beta-galactosidase) was > 66.6 µM (inactive) each time. The CC50 with Vero was > 25 µM (active).
Regarding `Cc1cc(C)n(-c2ccc3cccc(NS(C)(=O)=O)c3n2)n1`, the 50% effective concentration (EC50) is 0.137 µM (active) in test [9]; > 350 µM (not active) in “cells [10]”; 7.99 µM (active) in test [11]; 0.159 µM (active) in [12]; 1.07 µM (active) in [7]; > 350 µM (not active) in “cells [13]”. In addition, in [14], the EC50 was 0.68 µM (active). The values for the half-maximal cytotoxic concentration (CC50) in test [15], in [16] and in test [17] were 12.5 µM (active), 19.3 µM (active) and 3.8 µM (active), respectively. Moreover, the concentration for half-maximal inhibition (IC50) in “cells [18]” was > 25 µM (active); with H9c2, > 79 µM (inactive). The AC50 in test [19] was 1.32 µM (active); in test [20], 6.2 µM (active); in test [21] it was 0.759 µM (active).
For the molecule `O=C(COc1ccc(F)cc1Cl)Nc1nnc(-c2ccc3c(c2)OCCO3)o1`, the EC50 in test [22] is 2.6 µM (active).
Take `Clc1ccc2c(NCCNC3CCCCC3)ccnc2c1`: the concentration for half-maximal inhibition (IC50) in test [23] is > 150 µM (active).
